Blank lines part the entries; values can stand above or below the molecule they belong to. Ends that are not written are not given here.
Key:
[1] = molecular target: T1, extracellular domain of EGFR protein (Homo sapiens, UniProt P00533); settings: cited from earlier work
[2] = molecular target: T1, extracellular domain of EGFR protein; experiment: SPR analysis on immobilized EGFR extracellular domain; format: binding; settings: analyte up to 250 μM, HBS-EP+ with 4% DMSO

Molecule: 2: EGFR-L1 sequence modified with a glycine spacer, amide terminus (GLARLLT-NH2) [compound 2]
Association and dissociation with EGFR ECD by SPR (in words) ([1]; earlier studies): fast association and dissociation

Kind of binding to EGFR ECD in SPR sensorgram (in words) [2]: non-specific binding
Molecule: CC1=CC(C)=[N+]2C1=C(CCCC(=O)O)c1c(C)cc(C)n1[B-]2(F)F [BODIPY 1]

Molecule: cyclo(K(N3)larllt) [reference compound]
Binding to EGFR (in words) ([1]; previously shown): high affinity
